Laboratory results taken from patent US20090136517A1, “COMBINED TREATMENT WITH AN EGFR KINASE INHIBITOR AND AN INHIBITOR OF C-KIT” (priority 2007, published 2009).

Legend:
[1] = tested on: H2122 NSCLC tumor xenografts; test: Growth of H2122 NSCLC tumor xenografts in mice; assay type: in vivo, female nu/nu CD-1 mice; conditions: H2122 xenograft, 14th dosing day, single agent 100 mg/kg oral
Experimental: (refrigeration) until dosing. […] Resulting drug was kept at 5° C. (refrigeration) until dosing.

[2] = tested on: NCI-H292 tumor xenografts; test: Treatment beyond progression model, NCI-H292 tumor xenografts; assay type: in vivo, female nu/nu CD-1 mice; conditions: H292 xenografts progressing after 32 days of erlotinib; from time of re-sort; n=8 per group
Excerpt: Many patients with NSCLC who initially respond to erlotinib therapy develop progressive disease within a year of treatment. […] The mechanism for this phenomenon is not currently known. To evaluate this a preclinical model of progressive disease was utilized. This model utilizes the NCI-H292 tumor xenografts which initially respond very well to erlotinib treatment.
(§1) To run the preclinical treatment beyond progression studies NCI-H292 cells were harvested from cell culture flasks during exponential cell growth, washed twice with sterile PBS, counted and resuspended in PBS to a suitable concentration before s.c. implantation on the right flank of female nu/nu CD-1 mice. Tumors were established to 200±50 mm^3 in size before randomization into vehicle control or erlotinib treatment groups. […] Each animal was maintained on its designated dosing regimen until its tumor volume from the time of re-sort had doubled.

GEO tumor xenografts = test: Treatment beyond progression, GEO model; assay type: in vivo, female nu/nu CD-1 mice; conditions: GEO xenografts progressing after 15 days of erlotinib; from time of re-sort; n=8 per group
Excerpt: as §1, with “study GEO” for “studies NCI-H292”

[3] = tested on: MO7e human leukemia cells; conditions: cited from earlier work

Structure (SMILES) | tumor volume as percent of the initial tumor volume [1] | time to tumor doubling [2] | time to tumor doubling (GEO tumor xenografts) | GM-CSF stimulated growth of MO7e cells ([3]; GM-CSF stimulated) | apoptosis of MO7e cells ([3]; Kit ligand-stimulated conditions) | Kit ligand-stimulated growth of MO7e cells ([3]; Kit ligand-stimulated)
C#Cc1cccc(Nc2ncnc3cc(OCCOC)c(OCCOC)cc23)c1 [erlotinib, [6,7-bis(2-methoxyethoxy)-4-quinazolin-4-yl]-(3-ethynylphenyl) amine] | approximately 250% | 19.6 days | 16.7 days |  |  | 
Cc1ccc(NC(=O)c2ccc(CN3CCN(C)CC3)cc2)cc1Nc1nccc(-c2cccnc2)n1 [Gleevec] |  |  |  | not affected | induces apoptosis | inhibited
O=C(Nc1ccc(OC(F)(F)F)cc1)c1sccc1NCc1ccnc2ccccc12 [OSI-930, 3-[(Quinolin-4-ylmethyl)amino]-N-[4-(trifluoromethoxy)phenyl]thiophene-2-carboxamide] | ~120% | 30 days | 23.5 days |  |  | 
